Assay results from patent US20220194951A1, “DIHYDROPYRIMIDINE COMPOUND AND APPLICATION THEREOF AS DRUG” (SUNSHINE LAKE PHARMA CO., LTD., priority 2019, published 2022).

Key:
HBV [1] = experiment: Inhibition of HBV DNA replication in HepAD38 cells (qPCR method); type: cell-based; conditions: Hepatitis B virus, secreted virus DNA by qPCR
Description: Test 1: Evaluation of HepAD38 Cells on the Compound's Inhibitory Activity of HBV DNA Replication (qPCR Method)
HBV Cell Strain and Culture Conditions
HepAD38: Ladner et al. (Ladner, Otto et al. 1997) ligated the tetracycline-sensitive cytomegalovirus CMV promoter to the PBR322 plasmid and ligated it with the ayw subtype HBV DNA into the ptetHBV plasmid, and HepG2 cells were transfected to obtain the HepAD38 cell strain. Due to the destruction of the pre-C region gene, the yield of HBV DNA was about 11 times higher than that of HepG2.2.15 cells. Tetracycline could be used to regulate HBV replication, and the time required for culture was only half of that of HepG2.2.15 cells. It was suitable for studying the HBV replication process and replication intermediates and screening of anti-HBV drugs. HepAD38 was cultured in DMEM/F-12K medium containing 10% FBS and 1% double antibody (it also contained Tetracycline at a final concentration of 300 ng/ml and G418 at a final concentration of 400 μg/ml).
The virus particle DNA secreted by HepAD38 cells could be quantified by qPCR method, and thus the influence of the compound on virus replication could be detected.
(§1) Test of Anti HBV Activity In Vitro
After resuscitating the HepAD38 with a small number of passages, after the cells were in good condition, Tetracycline (final concentration of 300 ng/ml) and G418 (final concentration of 400 μg/ml) were added into the medium. […] After the cells were full, they were digested, counted, and diluted with DMEM/F-12K medium containing 10% FBS (containing Tetracycline at a final concentration of 300 ng/ml and G418 at a final concentration of 400 μg/ml, 1% double antibody) to a cell suspension of concentration of 2×10^5/mL. The cell suspension was seeded in a 96-well plate (the whole plate was covered) at 100 μL per well, and incubated at 37° C. in a constant temperature incubator with 5% CO2 for 24 h.
Compound preparation and cell treatment in antiviral experiments: the compound was dissolved with DMSO to 20 mM. Furthermore, the compound was diluted with DMSO to 800 μM, and then 8 dilutions at 4 fold were performed, the highest concentration was 800 μM. 1 μL of serially diluted compound was added to each well of the above-mentioned cell plate. The highest final concentration of the experiment was 4 μM (200 fold dilution). TDF (tenofovir disoproxil fumarate, Selleck, Cat S1400) was used as a positive control compound with a highest concentration of 4 μM. 1 μL of DMSO was added to the negative control wells to a final concentration of 0.5%.
The one-step hepatitis B virus nucleic acid quantitative determination kit for 48 people (PCR-fluorescent probe method) of Shengxiang Biotechnology was used for QPCR. 2.5 μL of supernatant was absorbed for Q-PCR, and the kit reagents were vortexed and mixed well after the reagents were melted before use. After centrifugation, the enzyme mixture was placed on ice for later use, and it was ensured that the subsequent steps were completed on the ice. 2.5 μL of sample release agent and 2.5 μL of test sample supernatant (experimental group, control group, standard curve group) were added to each well of the Q-PCR plate. After QPCR reaction, the copy number of virus DNA in each well was obtained. Graphpad Prism 5 software was used to process the concentration-virus copy number, and the EC50 of the compound against virus replication was calculated through a four-parameter nonlinear regression model.

[2] = PK test on cynomolgus monkeys; type: in vivo; conditions: male, cynomolgus monkey, plasma; for bioavailability: read-out: F (absolute bioavailability)
Procedure: (4) PK Test on Cynomolgus Monkeys:
The PK test method of the compound in vivo of cynomolgus monkeys (purchased from Guangdong Chunsheng Biotechnology Development Co., Ltd., weight 3-6 kg, male, ages of 4-6 years, 3 per oral group, 3 per intravenous injection group):
The cynomolgus monkeys were administered intragastrically with the test compound at doses of 2.5 mg/kg or 5 mg/kg or administered intravenously with the test compound at doses of 0.5 mg/kg or 1 mg/kg.
Blood samples were taken at 0.083, 0.25, 0.5, 1, 2, 4, 6, 8 and 24 hours from vein after the administration, and collected in anticoagulation tube with EDTA-K2. After liquid-liquid extraction, the plasma sample was quantitatively analyzed on a triple quadrupole tandem mass spectrometer using multiple reactive ion monitoring (MRM). Pharmacokinetic parameters were calculated using a noncompartmental method by WinNonLin 6.3 software.

HBV [3] = experiment: Inhibition of HBV DNA replication in HepG2.2.15 cells (qPCR); type: cell-based; conditions: Hepatitis B virus, secreted virus DNA by qPCR
Procedure: Test 2: Evaluation of HepG2.2.15 Cells on the Compound's Inhibitory Activity of HBV DNA Replication
HBV Cell Line and Culture Conditions
The chromosomes of HepG2.2.15 cells (SELLS, PNAS, 1987 and SELLS, JV, 1988) integrated a complete HBV genome and stably expressed viral RNA and viral proteins. HepG2.2.15 cells could secrete mature hepatitis B virus particles, HBsAg and HBeAg into the culture medium. HepG2.2.15 cells were cultured in a DMEM medium containing 10% fetal bovine serum, 100 U/mL penicillin, 100 U/mL streptomycin, 1% non-essential amino acids, 1 mM sodium pyruvate and 300 µg/mL G418.
The virus particle DNA secreted by HepG2.2.15 cells could be quantified by qPCR method, and the influence of the compound on virus replication could be detected.
as §1
8,000 HepG 2.2.15 cells per well were seeded into a 96-well cell culture plate, the plate was cultured at 37° C. and 5% CO2 for 3 days until the cells grew to full wells. Old liquid medium was discard and replaced with 200 μL of new medium (5% FBS) on day 0. […]
Primers: HBV-For-202, […]; HBV-Rev-315, […]. […] Graphpad Prism 5 software was used to process the concentration-virus copy number, and the EC50 of the compound against virus replication was calculated through a four-parameter nonlinear regression model.

COC(=O)C1=C(CN2CCN3C(=O)N(c4ccc(C(=O)O)cc4F)C[C@@H]3C2)NC(c2nccs2)=N[C@H]1c1ccc(F)cc1Cl [Example 1]
EC50 (HBV [1]): 20 nM

CCOC(=O)C1=C(CN2CCN3C(=O)N(c4ccc(C(=O)O)cc4F)C[C@@H]3C2)NC(c2nccs2)=N[C@H]1c1ccc(Cl)cc1Cl [Example 7]
EC50 (HBV [1]): 16 nM

CCOC(=O)C1=C(CN2CCN3C(=O)N(c4ccc(C(=O)O)c(F)c4)C[C@@H]3C2)NC(c2nccs2)=N[C@H]1c1ccc(F)cc1Br [Example 4]
EC50 (HBV [1]): 16 nM

COC(=O)C1=C(CN2CCN3C(=O)N(c4ccc(C(=O)O)cc4)C[C@@H]3C2)NC(c2nccs2)=N[C@H]1c1ccc(F)cc1Cl [Control compound, 4-((S)-7-(((R)-6-(2-chloro-4-fluorophenyl)-5-(methoxycarbonyl)-2-(thiazol-2-yl)-3,6-dihydropyrimidin-4-yl)methyl)-3-oxohexahydroimidazo[1,5-a]pyrazine-2(3H)-yl)benzoic acid, reference compound]
AUC(0-t) ([2]; iv, 0.5 mg/kg): 720 ng·h/mL | Tmax ([2]; iv, 0.5 mg/kg): 4.98 min | AUC(0-t) ([2]; po, 2.5 mg/kg): 647 ng·h/mL | Tmax ([2]; po, 2.5 mg/kg): 90 min | bioavailability ([2]; po, 2.5 mg/kg): 23.6%

CCOC(=O)C1=C(CN2CCN3C(=O)N(c4ccc(C(=O)O)c(F)c4)C[C@@H]3C2)NC(c2nccs2)=N[C@H]1c1ccc(Cl)cc1Cl [Example 8]
EC50 (HBV [1]): 13 nM

COC(=O)C1=C(CN2CCN3C(=O)N(c4ccc(C(=O)O)c(F)c4)C[C@@H]3C2)NC(c2nccs2)=N[C@H]1c1ccc(F)cc1Cl [Example 2]
EC50 (HBV [1]): 10 nM | EC50 (HBV [3]): 4 nM | AUC(0-t) ([2]; iv, 0.5 mg/kg): 1020 ng·h/mL | Tmax ([2]; iv, 0.5 mg/kg): 4.98 min | AUC(0-t) ([2]; po, 2.5 mg/kg): 3380 ng·h/mL | Tmax ([2]; po, 2.5 mg/kg): 30 min | bioavailability ([2]; po, 2.5 mg/kg): 64.8%

CCOC(=O)C1=C(CN2CCN3C(=O)N(c4ccc(C(=O)O)cc4F)C[C@@H]3C2)NC(c2nccs2)=N[C@H]1c1ccc(F)cc1Br [Example 3]
EC50 (HBV [1]): 31 nM

CCOC(=O)C1=C(CN2CCN3C(=O)N(c4ccc(C(=O)O)c(F)c4)C[C@@H]3C2)NC(c2nccs2)=N[C@H]1c1ccc(F)cc1Cl [Example 6]
EC50 (HBV [1]): 15 nM
